Results taken from patent publication US20250179059A1 (The Regents of the University of California, priority 2021, published 2025).

How the values were obtained:
[1] = target: T1, human BRD4 bromodomain II (Homo sapiens, UniProt O60885); assay: Bromodomain binding assay (AlphaScreen), BRD4 BDII; conditions: AlphaScreen assay, Table C2; read-out: BRD4 BDII IC50
T1 construct: human BRD4 bromodomain II [based on Genbank NM_058243, residues 349-460]; host or cells: E. coli
Outline: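 AlphaScreen competition: His6-BRD4 BDI (aa 44-170) or BDII (aa 349-460) vs biotin-H4(1-21) K5/K8/K12/K16Ac peptide; Ni-chelate acceptor/streptavidin donor beads. HEPES pH 7.5, NaCl, CHAPS, BSA, 1% DMSO; RT. 10-pt 3-fold titration, % peptide binding fitted → IC50.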

[2] = test system: human SKM-1 acute myeloid leukemia cells; assay: SKM-1 antiproliferation cell-based assay (ATPlite); conditions: Homo sapiens, SKM-1, 96 h, SKM-1 antiproliferation assay, 4 days, Table C2
Outline: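 Log-phase cells in RPMI 1640/15% FBS were seeded at 34722 cells/mL and exposed for 4 days to nine-concentration DMSO serial dilutions in triplicate. Viability was read as ATP luminescence (ATPlite 1step), and IC50 values came from variable-slope non-linear regression.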

Structure (SMILES) | IC50 [1] | GI50 [2]
Cc1cc(-c2ccnc(N3CCNCC3)c2)c(O)c(-c2ccc(-n3ccn(C)c3=O)c(Cl)c2)c1 [Example 420, 1-(3-chloro-2′-hydroxy-5′-methyl-3′-(2-(piperazin-1-yl)pyridin-4-yl)-[1,1′-biphenyl]-4-yl)-3-methyl-1H-imidazol-2(3H)-one] | 0.01 to 1 nM | 0.3 to 30 nM
CN1CCN(c2ccc(-c3cc(F)cc(-c4cnc(OC5CCC(O)CC5)c(N5CCNCC5)c4)c3O)cc2Cl)C1=O (centres unmarked) [Example 421, 1-(3-chloro-5′-fluoro-2′-hydroxy-3′-(6-((4-hydroxycyclohexyl)oxy)-5-(piperazin-1-yl)pyridin-3-yl)-[1,1′-biphenyl]-4-yl)-3-methylimidazolidin-2-one] | 0.01 to 1 nM | 30 to 300 nM
Cn1cc(-c2cc(F)cc(-c3ccc(-n4ccn(C)c4=O)c(Cl)c3)c2O)cc(N2CC[C@H](N)C2)c1=O [Example 422, (S)-3-(3-aminopyrrolidin-1-yl)-5-(3′-chloro-5-fluoro-2-hydroxy-4′-(3-methyl-2-oxo-2,3-dihydro-1H-imidazol-1-yl)-[1,1′-biphenyl]-3-yl)-1-methylpyridin-2(1H)-one] | 0.01 to 1 nM | 0.3 to 30 nM
Cn1ccn(-c2ccc(-c3cc(F)cc(-c4ccnc(N5CC[C@H](N)C5)c4)c3O)cc2Cl)c1=O [Example 423, (S)-1-(3′-(2-(3-aminopyrrolidin-1-yl)pyridin-4-yl)-3-chloro-5′-fluoro-2′-hydroxy-[1,1′-biphenyl]-4-yl)-3-methyl-1H-imidazol-2(3H)-one] | 0.01 to 1 nM | 0.3 to 30 nM
CN1CCN(c2ccc(-c3cc(F)cc(-c4cc(N5CCNCC5)c5[nH]ncc5c4)c3O)cc2Cl)C1=O [Example 424, 1-(3-chloro-5′-fluoro-2′-hydroxy-3′-(7-(piperazin-1-yl)-1H-indazol-5-yl)-[1,1′-biphenyl]-4-yl)-3-methylimidazolidin-2-one] | 0.01 to 1 nM | 30 to 300 nM
Cn1cc(-c2cc(F)cc(-c3ccc(-n4ccn(C)c4=O)c(Cl)c3)c2O)cc(N2CCC[C@H](N)C2)c1=O [Example 425, (S)-3-(3-aminopiperidin-1-yl)-5-(3′-chloro-5-fluoro-2-hydroxy-4′-(3-methyl-2-oxo-2,3-dihydro-1H-imidazol-1-yl)-[1,1′-biphenyl]-3-yl)-1-methylpyridin-2(1H)-one] | 0.01 to 1 nM | 30 to 300 nM
CN1CCN(c2c(Cl)cc(-c3cc(F)cc(-c4ccnc(N5CCNCC5)c4)c3O)cc2C#N)C1=O [Example 426, 5-chloro-5′-fluoro-2′-hydroxy-4-(3-methyl-2-oxoimidazolidin-1-yl)-3′-(2-(piperazin-1-yl)pyridin-4-yl)-[1,1′-biphenyl]-3-carbonitrile] | > 100 nM | ≥ 3000 nM
Cn1cc(-c2cc(F)cc(-c3ccc(-n4ccn(C)c4=O)c(Cl)c3)c2O)cc(N2CCC(N)CC2)c1=O [Example 427, 3-(4-aminopiperidin-1-yl)-5-(3′-chloro-5-fluoro-2-hydroxy-4′-(3-methyl-2-oxo-2,3-dihydro-1H-imidazol-1-yl)-[1,1′-biphenyl]-3-yl)-1-methylpyridin-2(1H)-one] | 1 to 10 nM | 300 to 3000 nM
CN1CCN(c2ccc(-c3cc(F)cc(-c4cnc(CCO)c(N5CCNCC5)c4)c3O)cc2Cl)C1=O [Example 428, 1-(3-chloro-5′-fluoro-2′-hydroxy-3′-(6-(2-hydroxyethyl)-5-(piperazin-1-yl)pyridin-3-yl)-[1,1′-biphenyl]-4-yl)-3-methylimidazolidin-2-one] | 1 to 10 nM | 30 to 300 nM
CN[C@H]1CCN(c2cc(-c3cc(F)cc(-c4ccc(-n5ccn(C)c5=O)c(Cl)c4)c3O)ccn2)C1 [Example 429] | 0.01 to 1 nM | 0.3 to 30 nM
CN1CCN(c2cc(-c3cc(F)cc(-c4ccc(-n5ccn(C)c5=O)c(Cl)c4)c3O)ccn2)CC1 [Example 430, 1-(3-chloro-5′-fluoro-2′-hydroxy-3′-(2-(4-methylpiperazin-1-yl)pyridin-4-yl)-[1,1′-biphenyl]-4-yl)-3-methyl-1H-imidazol-2(3H)-one] | 0.01 to 1 nM | 0.3 to 30 nM
O=c1[nH]c2ccc(-c3cc(F)cc(-c4ccnc(N5CCNCC5)c4)c3O)cc2[nH]1 [Example 431, 5-(5-fluoro-2-hydroxy-3-(2-(piperazin-1-yl)pyridin-4-yl)phenyl)-1H-benzo[d]imidazol-2(3H)-one] | > 100 nM | ≥ 3000 nM
C[C@@H]1CN(c2cc(-c3cc(F)cc(-c4ccc(-n5ccn(C)c5=O)c(Cl)c4)c3O)cn(C)c2=O)CCN1 [Example 432, (R)-5-(3′-chloro-5-fluoro-2-hydroxy-4′-(3-methyl-2-oxo-2,3-dihydro-1H-imidazol-1-yl)-[1,1′-biphenyl]-3-yl)-1-methyl-3-(3-methylpiperazin-1-yl)pyridin-2(1H)-one] | 0.01 to 1 nM | 0.3 to 30 nM
CC(=O)Nc1cc(-c2cc(F)cc(-c3ccc(N4CCN(C)C4=O)c(Cl)c3)c2O)cc(N2CCNCC2)n1 [Example 433, N-(4-(3′-chloro-5-fluoro-2-hydroxy-4′-(3-methyl-2-oxoimidazolidin-1-yl)-[1,1′-biphenyl]-3-yl)-6-(piperazin-1-yl)pyridin-2-yl)acetamide] | 1 to 10 nM | 0.3 to 30 nM
CC(C)Oc1cc(-c2cc(F)cc(-c3ccnc(N4CCNCC4)c3)c2O)cc(Cl)c1-n1ccn(C)c1=O [Example 434, 1-(3-chloro-5′-fluoro-2′-hydroxy-5-isopropoxy-3′-(2-(piperazin-1-yl)pyridin-4-yl)-[1,1′-biphenyl]-4-yl)-3-methyl-1H-imidazol-2(3H)-one] | 10 to 100 nM | 300 to 3000 nM
Cn1ccn(-c2c(F)cc(-c3cc(F)cc(-c4ccnc(N5CCNCC5)c4)c3O)cc2Cl)c1=O [Example 436, 1-(3-chloro-5,5′-difluoro-2′-hydroxy-3′-(2-(piperazin-1-yl)pyridin-4-yl)-[1,1′-biphenyl]-4-yl)-^3-methyl-1H-imidazol-2(3H)-one] | 1 to 10 nM | 30 to 300 nM
Cn1cc(-c2cc(F)cc(-c3ccc(-n4ccn(C)c4=O)c(Cl)c3)c2O)cc(N2CCNCC2)c1=O [Example 437, 5-(3′-chloro-5-fluoro-2-hydroxy-4′-(3-methyl-2-oxo-2,3-dihydro-1H-imidazol-1-yl)-[1,1′-biphenyl]-3-yl)-1-methyl-3-(piperazin-1-yl)pyridin-2(1H)-one] | 1 to 10 nM | 0.3 to 30 nM
CN[C@H]1CCN(c2cc(-c3cc(F)cc(-c4ccc(N5CCN(C)C5=O)c(Cl)c4)c3O)ccn2)C1 [Example 438, (S)-1-(3-chloro-5′-fluoro-2′-hydroxy-3′-(2-(3-(methylamino)pyrrolidin-1-yl)pyridin-4-yl)-[1,1′-biphenyl]-4-yl)-3-methylimidazolidin-2-one] | 1 to 10 nM | 30 to 300 nM
Cn1ccn(-c2ccc(-c3cc(F)cc(-c4cc(NS(C)(=O)=O)nc(N5CCNCC5)c4)c3O)cc2Cl)c1=O [Example 439, N-(4-(3′-chloro-5-fluoro-2-hydroxy-4′-(3-methyl-2-oxo-2,3-dihydro-1H-imidazol-1-yl)-[1,1′-biphenyl]-3-yl)-6-(piperazin-1-yl)pyridin-2-yl)methanesulfonamide] | 0.01 to 1 nM | 30 to 300 nM
CN[C@H]1CCCN(c2cc(-c3cc(F)cc(-c4ccc(-n5ccn(C)c5=O)c(Cl)c4)c3O)ccn2)C1 [Example 440, (S)-1-(3-chloro-5′-fluoro-2′-hydroxy-3′-(2-(3-(methylamino)piperidin-1-yl)pyridin-4-yl)-[1,1′-biphenyl]-4-yl)-3-methyl-1H-imidazol-2(3H)-one] | 0.01 to 1 nM | 30 to 300 nM
CN1CCN(c2cc(-c3cc(F)cc(-c4ccc(N5CCN(C)C5=O)c(Cl)c4)c3O)ccn2)CC1 [Example 441, 1-(3-chloro-5′-fluoro-2′-hydroxy-3′-(2-(4-methylpiperazin-1-yl)pyridin-4-yl)-[1,1′-biphenyl]-4-yl)-3-methylimidazolidin-2-one] | 1 to 10 nM | 30 to 300 nM
CC(=O)Nc1cc(-c2cc(F)cc(-c3ccc(-n4ccn(C)c4=O)c(Cl)c3)c2O)cc(N2CCNCC2)n1 [Example 442, N-(4-(3′-chloro-5-fluoro-2-hydroxy-4′-(3-methyl-2-oxo-2,3-dihydro-1H-imidazol-1-yl)-[1,1′-biphenyl]-3-yl)-6-(piperazin-1-yl)pyridin-2-yl)acetamide] | 0.01 to 1 nM | 0.3 to 30 nM
CN1CCN(c2ccc(-c3cc(F)cc(-c4ccnc(N5CCNC(C(F)(F)F)C5)c4)c3O)cc2Cl)C1=O (centres unmarked) [Example 444, 1-(3-chloro-5′-fluoro-2′-hydroxy-3′-(2-(3-(trifluoromethyl)piperazin-1-yl)pyridin-4-yl)-[1,1′-biphenyl]-4-yl)-3-methylimidazolidin-2-one] | 10 to 100 nM | 300 to 3000 nM
Cn1ccn(-c2ccc(-c3cc(F)cc(-c4ccc(OC5CCNCC5)nc4)c3O)cc2Cl)c1=O [Example 445, 1-(3-chloro-5′-fluoro-2′-hydroxy-3′-(6-(piperidin-4-yloxy)pyridin-3-yl)-[1,1′-biphenyl]-4-yl)-3-methyl-1H-imidazol-2(3H)-one] | 1 to 10 nM | 300 to 3000 nM
Cn1ccn(-c2c(Cl)cc(-c3cc(F)cc(-c4ccnc(N5CCNCC5)c4)c3O)cc2C#N)c1=O [Example 448, 5-chloro-5′-fluoro-2′-hydroxy-4-(3-methyl-2-oxo-2,3-dihydro-1H-imidazol-1-yl)-3′-(2-(piperazin-1-yl)pyridin-4-yl)-[1,1′-biphenyl]-3-carbonitrile] | 10 to 100 nM | 300 to 3000 nM
